System: Bacterial Phage Lambda DNA
Test: In vitro nucleic acid binding fluorescence assay, Lambda DNA
Conditions: equivalent fluorochrome concentrations, FIG. 1F
Experimental: Bacterial Phage Lambda DNA (Sigma-Aldrich), CpG DNA (Enzo Life, Plymouth Meeting, Pa.), Torula yeast RNA (Sigma-Aldrich) were completely dissolved in Tris-acetate-EDTA (TAE) buffer (pH=8) by gentle inversion overnight at 4° C. Lambda DNA, CpG DNA, yeast RNA stock solutions were characterized by spectrophotometry to determine the concentration and purity. Total mouse heart RNA was extracted from C57Bl6 mouse hearts using TRI Reagent (Sigma-Aldrich) and characterized with a NanoDrop spectrophotometer (Thermo Fisher) as described in Feng Y, Chen H, et al., J Biol Chem. 2015; 290: 26688-98. […] Fluorescence was measured with the GloMax-Multi Detection System and snap-in fluorescent optical kits (Promega, Madison, Wis.). EC50 was determined using the dose-response curve fitting function implemented in Prism (GraphPad, La Jolla, Calif.).

| Molecule | Fluorescence increase with DNA concentration |
| --- | --- |
| CN1/C(=C/c2cc[n+](CCC[N+](C)(C)C)c3ccccc23)Sc2ccccc21 [TO-PRO 1] | substantially less increase |
| Cy5.5 | No fluorescence increase and none |
